Measured values taken from US20260184710A1, “CASITAS B-LINEAGE LYMPHOMA PROTOONCOGENE B (CBL-B) DEGRADING COMPOUNDS AND ASSOCIATED METHODS OF USE” (Arvinas Operations, Inc., priority 2022, published 2026).

How the values were obtained:
Cbl-b [1] = target: T1, Cbl-b (Homo sapiens, UniProt Q13191); assay: Cbl-b Degradation Method A (FACS, anti-Cbl-b antibody staining); type: cell-based; conditions: Cbl-b-HiBit KI Jurkat Cells, incubated at least 20 hours; for DC50: half maximal degradation, read-out: Cbl-b Degredation Method A IC50; for Dmax: Jurkat, read-out: Cbl-b Degredation Method A Dmax (%)
T1 construct: Cbl-b-HiBit KI Jurkat Cells were purchased from Promega; host or cells: Cbl-b-HiBiT knock-in Jurkat cells
Summary of the method: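 Cbl-b-HiBit KI Jurkat cells treated with compound for at least 20 h at 37 °C, then fixed, permeabilized and stained with anti-Cbl-b antibody plus anti-rabbit AF488 secondary. Cbl-b levels read by FACS; DC50 and Dmax (percent of control) derived.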

Cbl-b [2] = target: T1, Cbl-b; assay: Cbl-b Degradation Method B (Nano-Glo HiBiT lytic detection); type: cell-based; conditions: Cbl-b-HiBit KI Jurkat Cells, incubated at least 6-24 hours; for DC50: half maximal degradation, read-out: Cbl-b Degredation Method B IC50; for Cbl-b Degredation Method B Dmax (%) / Dmax: maximum degradation observed; for Dmax: read-out: Cbl-b Degredation Method B Dmax (%)
Summary of the method: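 Cbl-b-HiBiT knock-in Jurkat cells (20,000/well) were treated after ~24 h plating with an 11-point 1:3 series for 6-24 h at 37° C. Remaining Cbl-b measured by Nano-Glo HiBiT lytic luminescence. DC50 and Dmax expressed as % of control.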

T1 sequence (Q13191 whole entry): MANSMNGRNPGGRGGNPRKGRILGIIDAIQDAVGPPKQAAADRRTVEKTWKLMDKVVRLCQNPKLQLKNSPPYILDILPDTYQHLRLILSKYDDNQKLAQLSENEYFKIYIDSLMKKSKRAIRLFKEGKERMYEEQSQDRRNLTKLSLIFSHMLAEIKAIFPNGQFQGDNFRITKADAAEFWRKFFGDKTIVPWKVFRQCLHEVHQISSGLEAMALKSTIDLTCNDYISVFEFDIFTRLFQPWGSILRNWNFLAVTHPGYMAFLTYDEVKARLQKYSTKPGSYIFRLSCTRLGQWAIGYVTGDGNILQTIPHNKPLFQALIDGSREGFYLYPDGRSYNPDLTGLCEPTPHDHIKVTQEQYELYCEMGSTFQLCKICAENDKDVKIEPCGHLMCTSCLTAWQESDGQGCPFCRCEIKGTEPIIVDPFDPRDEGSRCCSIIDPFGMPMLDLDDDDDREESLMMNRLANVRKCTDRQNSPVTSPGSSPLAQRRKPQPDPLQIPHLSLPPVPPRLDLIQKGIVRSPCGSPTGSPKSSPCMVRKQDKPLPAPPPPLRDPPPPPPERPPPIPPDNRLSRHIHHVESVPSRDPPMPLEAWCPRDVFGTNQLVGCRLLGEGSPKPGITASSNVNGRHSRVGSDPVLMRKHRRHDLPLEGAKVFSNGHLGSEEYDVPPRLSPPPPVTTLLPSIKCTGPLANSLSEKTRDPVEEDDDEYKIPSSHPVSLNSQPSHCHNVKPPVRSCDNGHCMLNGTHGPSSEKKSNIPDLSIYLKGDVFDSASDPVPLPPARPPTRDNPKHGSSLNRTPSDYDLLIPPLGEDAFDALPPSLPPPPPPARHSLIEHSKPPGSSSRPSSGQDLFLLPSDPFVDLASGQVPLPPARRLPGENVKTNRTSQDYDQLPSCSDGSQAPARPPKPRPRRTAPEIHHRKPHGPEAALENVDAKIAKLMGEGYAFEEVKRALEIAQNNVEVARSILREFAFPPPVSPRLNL

SMILES | DC50 (Cbl-b [1]) [nM] | Cbl-b Degredation Method A Dmax (%) (Cbl-b [1]; maximum degradation observed) | DC50 (Cbl-b [2]) [nM] | Cbl-b Degredation Method B Dmax (%) (Cbl-b [2]) | Dmax (Cbl-b [1]; maximum degradation observed) [%] | Dmax (Cbl-b [2]) [%]
C[C@@H]1c2nc(N3CCC(O[C@H]4CC[C@H](CN5CCN(Cc6cc7c(c(C(F)(F)F)c6)CN(c6cccc(C8(Cc9nncn9C)CC(C#N)C8)c6)C7=O)C(C)(C)C5)CC4)CC3)ccc2C(=O)N1C1CCC(=O)NC1=O (single isomer, unassigned) [Example 307, (1r***,3r***)-3-(3-{6-[(2,2-dimethyl-4-{[(1r**,4r**)-4-({1-[(7R*)-6-(2,6-dioxopiperidin-3-yl)-7-methyl-5-oxo-5H,6H,7H-pyrrolo[3,4-b]pyridin-2-yl]piperidin-4-yl}oxy)cyclohexyl]methyl}piperazin-1-yl)methyl]-1-oxo-4-(trifluoromethyl)-2,3-dihydro-1H-isoindol-2-yl}phenyl)-3-[(4-methyl-4H-1,2,4-triazol-3-yl)methyl]cyclobutane-1-carbonitrile] | 50 to 500 | B (35 < B < 70) | < 5 | C (C ≤ 35) |  | 
Cc1cc(N2CCC(O[C@H]3CC[C@H](CN4CCN(Cc5cc(C(F)(F)F)c6cn(-c7cccc(C8(Cc9nncn9C)CC(C#N)C8)c7)nc6c5)C(C)(C)C4)CC3)CC2)c(F)c2c1C(=O)N(C1CCC(=O)NC1=O)C2 (stereo partly shown) [Example 292, (1r**,3r**)-3-(3-{6-[(2,2-dimethyl-4-{[(1r*,4r*)-4-({1-[2-(2,6-dioxopiperidin-3-yl)-4-fluoro-7-methyl-1-oxo-2,3-dihydro-1H-isoindol-5-yl]piperidin-4-yl}oxy)cyclohexyl]methyl}piperazin-1-yl)methyl]-4-(trifluoromethyl)-2H-indazol-2-yl}phenyl)-3-[(4-methyl-4H-1,2,4-triazol-3-yl)methyl]cyclobutane-1-carbonitrile] | 5 to 50 |  | 50 to 500 |  | < 35 | 
Cn1cnnc1CC1(c2cccc(N3Cc4c(cc(CN5CCC(CN6CCN(c7ccc8c(c7)C(=O)N(C7CCC(=O)NC7=O)C8=O)CC6)CC5)cc4C(F)(F)F)C3=O)c2)COC1 (stereo not shown) [Example 28, 2-(2,6-dioxopiperidin-3-yl)-5-{4-[(1-{[2-(3-{3-[(4-methyl-4H-1,2,4-triazol-3-yl)methyl]oxetan-3-yl}phenyl)-3-oxo-7-(trifluoromethyl)-2,3-dihydro-1H-isoindol-5-yl]methyl}piperidin-4-yl)methyl]piperazin-1-yl}-2,3-dihydro-1H-isoindole-1,3-dione] | > 500 |  | > 500 |  |  | 
CC1c2cc(N3CCC(CN4CCC5(CC4)CN(c4cc6c(c(C(F)(F)F)c4)CN(c4cccc(C7(Cc8nncn8C)COC7)c4)C6=O)C5)CC3)ccc2C(=O)N1C1CCC(=O)NC1=O (stereo not shown) [Example 138, 3-{3-methyl-5-[4-({2-[2-(3-{3-[(4-methyl-4H-1,2,4-triazol-3-yl)methyl]oxetan-3-yl}phenyl)-3-oxo-7-(trifluoromethyl)-2,3-dihydro-1H-isoindol-5-yl]-2,7-diazaspiro[3.5]nonan-7-yl}methyl)piperidin-1-yl]-1-oxo-2,3-dihydro-1H-isoindol-2-yl}piperidine-2,6-dione] | 5 to 50 |  | < 5 |  | 35 to 70 | < 35
CC(C)n1c(=O)n(C2CCC(=O)NC2=O)c2cccc(N3CCC(O[C@H]4CC[C@H](CN5CC6(CN(Cc7cc8c(c(C(F)(F)F)c7)CN(c7cccc([C@]9(Cc%10nncn%10C)C[C@@H](C#N)C9)c7)C8=O)C6)C5)CC4)CC3)c21 (stereo partly shown) [Example 327, (1r,3r)-3-[(4-methyl-4H-1,2,4-triazol-3-yl)methyl]-3-(3-{1-oxo-6-[(6-{[(1r,4r)-4-({1-[1-(2,6-dioxopiperidin-3-yl)-2-oxo-3-(propan-2-yl)-2,3-dihydro-1H-1,3-benzodiazol-4-yl]piperidin-4-yl}oxy)cyclohexyl]methyl}-2,6-diazaspiro[3.3]heptan-2-yl)methyl]-4-(trifluoromethyl)-2,3-dihydro-1H-isoindol-2-yl}phenyl)cyclobutane-1-carbonitrile] | 5 to 50 |  | < 5 | C (C ≤ 35) | 35 to 70 | 
COc1c(N2CCC(O[C@H]3CC[C@H](CN4CCC5(CC4)CN(c4cc6c(c(C(F)(F)F)c4)CN(c4cccc(C7(Cc8nncn8C)COC7)c4)C6=O)C5)CC3)CC2)ccc2c1CN(C1CCC(=O)NC1=O)C2=O (stereo partly shown) [Example 169, 3-[4-methoxy-1-oxo-5-(4-{[(1r,4r)-4-({2-[2-(3-{3-[(4-methyl-4H-1,2,4-triazol-3-yl)methyl]oxetan-3-yl}phenyl)-3-oxo-7-(trifluoromethyl)-2,3-dihydro-1H-isoindol-5-yl]-2,7-diazaspiro[3.5]nonan-7-yl}methyl)cyclohexyl]oxy}piperidin-1-yl)-2,3-dihydro-1H-isoindol-2-yl]piperidine-2,6-dione] | 5 to 50 |  | < 5 |  | > 70 | > 70
CC1c2nc(N3CCC(O[C@H]4CC[C@H](CN5CCC6(CC5)CN(c5cc7c(c(C(F)(F)F)c5)CN(c5cccc([C@]8(Cc9nncn9C)C[C@@H](C#N)C8)c5)C7=O)C6)CC4)CC3)ccc2C(=O)N1C1CCC(=O)NC1=O (stereo partly shown) [Example 175, (1r,3r)-3-[(4-methyl-4H-1,2,4-triazol-3-yl)methyl]-3-{3-[1-oxo-6-(7-{[(1r,4r)-4-({1-[6-(2,6-dioxopiperidin-3-yl)-7-methyl-5-oxo-5H,6H,7H-pyrrolo[3,4-b]pyridin-2-yl]piperidin-4-yl}oxy)cyclohexyl]methyl}-2,7-diazaspiro[3.5]nonan-2-yl)-4-(trifluoromethyl)-2,3-dihydro-1H-isoindol-2-yl]phenyl}cyclobutane-1-carbonitrile] | 5 to 50 |  | < 5 |  | > 70 | 35 to 70
Cn1cnnc1CC1(c2cccc(N3Cc4c(cc(N5CCC(C6CCN(c7ccc8c(c7)C(=O)N(C7CCC(=O)NC7=O)C8=O)CC6)CC5)cc4C(F)(F)F)C3=O)c2)COC1 (stereo not shown) [Example 124, 2-(2,6-dioxopiperidin-3-yl)-5-{1′-[2-(3-{3-[(4-methyl-4H-1,2,4-triazol-3-yl)methyl]oxetan-3-yl}phenyl)-3-oxo-7-(trifluoromethyl)-2,3-dihydro-1H-isoindol-5-yl]-[4,4′-bipiperidin]-1-yl}-2,3-dihydro-1H-isoindole-1,3-dione] | > 500 |  | > 500 |  |  | 
C[C@H]1C[C@@H](CN2CCN(c3ccc4c(c3)C(=O)N(C3CCC(=O)NC3=O)C4=O)CC2)CN(Cc2cc3c(c(C(F)(F)F)c2)CN(c2cccc(C4(Cc5nncn5C)COC4)c2)C3=O)C1 (stereo partly drawn) [Example 85, 2-(2,6-dioxopiperidin-3-yl)-5-(4-{[(3R,5S)-5-methyl-1-{[2-(3-{3-[(4-methyl-4H-1,2,4-triazol-3-yl)methyl]oxetan-3-yl}phenyl)-3-oxo-7-(trifluoromethyl)-2,3-dihydro-1H-isoindol-5-yl]methyl}piperidin-3-yl]methyl}piperazin-1-yl)-2,3-dihydro-1H-isoindole-1,3-dione] | 5 to 50 |  | 5 to 50 |  |  | > 70
Cn1cnnc1CC1(c2cccc(N3Cc4c(cc(CN5CCC(CC6CCN(c7ccc8c(c7)C(=O)N(C7CCC(=O)NC7=O)C8=O)CC6)C5)cc4C(F)(F)F)C3=O)c2)COC1 (stereo not shown) [Example 75, 2-(2,6-dioxopiperidin-3-yl)-5-{4-[(1-{[2-(3-{3-[(4-methyl-4H-1,2,4-triazol-3-yl)methyl]oxetan-3-yl}phenyl)-3-oxo-7-(trifluoromethyl)-2,3-dihydro-1H-isoindol-5-yl]methyl}pyrrolidin-3-yl)methyl]piperidin-1-yl}-2,3-dihydro-1H-isoindole-1,3-dione] | > 500 |  | > 500 |  |  | 
CC1CN(C[C@H]2CC[C@H](OC3CCN(c4ccc5c(c4F)CN(C4CCC(=O)NC4=O)C5=O)CC3)CC2)CCN1Cc1cc2c(c(C(F)(F)F)c1)CN(c1cccc([C@]3(Cc4nncn4C)C[C@@H](C#N)C3)c1)C2=O (stereo partly shown) [Example 204, (1r,3r)-3-(3-{6-[(2-methyl-4-{[(1r,4r)-4-({1-[2-(2,6-dioxopiperidin-3-yl)-4-fluoro-1-oxo-2,3-dihydro-1H-isoindol-5-yl]piperidin-4-yl}oxy)cyclohexyl]methyl}piperazin-1-yl)methyl]-1-oxo-4-(trifluoromethyl)-2,3-dihydro-1H-isoindol-2-yl}phenyl)-3-[(4-methyl-4H-1,2,4-triazol-3-yl)methyl]cyclobutane-1-carbonitrile] | < 5 |  | < 5 |  | > 70 | 35 to 70
CC1CN(C[C@H]2CC[C@H](OC3CCN(c4ccc5c(n4)C(C)N(C4CCC(=O)NC4=O)C5=O)CC3)CC2)CCN1Cc1cc2c(c(C(F)(F)F)c1)CN(c1cccc(C3(Cc4nncn4C)CC3)c1)C2=O (stereo partly shown) [Example 212, 3-[7-methyl-5-oxo-2-(4-{[(1r,4r)-4-[(3-methyl-4-{[2-(3-{1-[(4-methyl-4H-1,2,4-triazol-3-yl)methyl]cyclopropyl}phenyl)-3-oxo-7-(trifluoromethyl)-2,3-dihydro-1H-isoindol-5-yl]methyl}piperazin-1-yl)methyl]cyclohexyl]oxy}piperidin-1-yl)-5H,6H,7H-pyrrolo[3,4-b]pyridin-6-yl]piperidine-2,6-dione] | 5 to 50 |  | < 5 |  | 35 to 70 | 35 to 70
